Measurements as given in patent US20040166509A1, “Detecting hormonally active compounds” (priority 2002, published 2004).

Test system: liver cDNAs of adult male LMB
Test: LMB gene arrays of SSH-derived cDNAs: liver of fish treated with androgens
Type: in vivo, largemouth bass (LMB)
Settings: DHT 62.5 μg/g, 11-KT 20 μg/g vs DMSO
Procedure: For each cDNA clone, the general background of each membrane was subtracted from the average value of the duplicate spots on the membrane. The values were then normalized to the average value of seven cDNA clones specific to ribosomal genes and the fold change calculated by dividing the mean of each treatment by the mean of the control. Those genes which changed by 2-fold or more were graphed. Significant differences (p<0.05) were determined by ANOVA and secondary testing was done by using […].

`C[C@]12CC(=O)[C@H]3[C@@H](CCC4=CC(=O)CC[C@@]43C)[C@@H]1CC[C@@H]2O` [11-KT, 11-ketotestosterone] was tested, and the “24-1 (LOC L1) change” value was “down”, the “ALPHA TUBULIN (LOC M2) change” value was “down” and the “COMPLEMENT C3 (LOC L3) change” value was “down”. The “CYSTATIN (LOC O3) change” value was “down-regulated”, the “ER GAMMA 5′ 2F (LOC L14) change” value was “down” and the “EST SEASONAL 9 (LOC D13) change” value was “up (Those genes which changed by 2-fold or more were graphed)”. For the same molecule, the “EST SEASONAL 51 (LOC K11) change” value was “down”, the “EST SEASONAL 55 (LOC M4) change” value was “down” and the “EST SEASONAL 62 (LOC B14) change” value was “up (Those genes which changed by 2-fold or more were graphed)”. For the same molecule, the “EST SEASONAL 64 (LOC H7) change” value was “up (Those genes which changed by 2-fold or more were graphed)”, the “EST SEASONAL 72 (LOC K12) change” value was “down” and the “EST SEASONAL F21 (LOC O13) change” value was “down”. For the same molecule, the “ESTP4_H07 (LOC K13) change” value was “up (Those genes which changed by 2-fold or more were graphed)”, the “GP3 11C (LOC K1) change” value was “down” and the “LDL RC (LOC J10) change” value was “down”. For the same molecule, the “LMB24-1 (Unknown) differentially expressed by androgens” value was “dn-reg DHT;”, the “LMB151 vitellogenin receptor differentially expressed by” value was “Dn-reg” and the “LMB CYSTATIN-PREC (Cystatin precursor) differentially expressed by” value was “Dn-reg 11-KT”. For the same molecule, the “LMB EST--SEASONAL_64 differentially expressed by” value was “up-reg DHT;”, the “LMB EST--SEASONAL_72 differentially expressed by” value was “Dn-reg DHT;” and the “LMB EST--SEASONAL_F17 differentially expressed by” value was “Dn-reg 11-KT”. The “LMB EST-SEASONAL_55 differentially expressed by” value was “Dn-reg 11-KT;”, the “LMB EST-SEASONALf17 differentially expressed by” value was “down by 11KT” and the “LMB RIKEN 1110001M01 differentially expressed by” value was “up by 11KT;”. The “LMB_ALPHA-TUBULIN (alpha tubulin) differentially expressed by” value was “Dn-reg 11-kt;”, the “LMB_COMPLEMENT-C3 (Complement C3 precursor) differentially expressed by” value was “Dn-reg DHT;” and the “LMB_ER-GAMMA ESTROGEN RECEPTOR GAMMA differentially expressed by (11-KT)” value was “Dn-reg 11-KT;”. For the same molecule, the “LMB_EST-SEASONAL_09 differentially expressed by” value was “up-reg DHT;”, the “LMB_EST-SEASONAL_11 differentially expressed by” value was “dn-reg 11-KT” and the “LMB_EST-SEASONAL_51 differentially expressed by” value was “dn 11-KT;”. For the same molecule, the “LMB_ESTDHT64 differentially expressed by” value was “up by 11KT”, the “LMB_ESTDHT_62 differentially expressed by” value was “up-reg DHT;” and the “LMB_LDL RC (LDL receptor) differentially expressed by” value was “Dn-reg DHT;”. For the same molecule, the “LMB_RXR INTERACT PROT (Retinoid X receptor interacting protein) differentially expressed by” value was “Dn-reg 11-KT;”, the “LMB_SOL-CAR-25A#5 (solute carrier family 25 alpha member 5) differentially expressed by” value was “up-reg DHT;” and the “LMB_SSAT (SSAT) differentially expressed by” value was “up-reg DHT;”. The “LMB_WARM-WATER ACC PROTEIN (Warm water acclimation-related protein) differentially expressed by” value was “up-reg 11-KT”, the “LMB_ZPC1 (ZPC1) differentially expressed by” value was “up-reg DHT;” and the “LMB_ZPC4 (ZPC4) differentially expressed by” value was “up-reg DHT;”. For the same molecule, the “PTTP (LOC O10) change” value was “up-”, the “RETINOL DEHYDROGENASE (LOC M11) change” value was “up (Those genes which changed by 2-fold or more were graphed)” and the “RIKEN 1110001M01 (LOC O11) change” value was “up (Those genes which changed by 2-fold or more were graphed)”. The “RXR INTERACTING PROT (LOC L11) change” value was “down”, the “SOLUTE CARRIER (LOC B13) change” value was “up (Those genes which changed by 2-fold or more were graphed)” and the “SSAT (LOC C13) change” value was “up (Those genes which changed by 2-fold or more were graphed)”. The “TFIID (change to liver regeration related protein) (LOC M12) change” value was “down”, the “VTG PRECURSOR (LOC D14) change” value was “up (Those genes which changed by 2-fold or more were graphed)” and the “VTG RC (LOC M14) change” value was “down”. The “ZPC1 (LOC H14) change” value was “up (Those genes which changed by 2-fold or more were graphed)”, the “ZPC4 (LOC I14) change” value was “up (Those genes which changed by 2-fold or more were graphed)” and the “warm water acclim (LOC E14) change” value was “up (Those genes which changed by 2-fold or more were graphed)”.
